Measurements reported in US20230255953A1, “USE OF ROLUPERIDONE IN PREVENTING RELAPSE IN SCHIZOPHRENIA PATIENTS” (Minerva Neurosciences, Inc., priority 2022, published 2023).

Tested on: patients with negative symptoms of schizophrenia
Experiment: Study #1 (MIN-101C03) Phase 2b: PANSS-derived scores (PSM, NSFS, total, subscales)
Format: in vivo, human
Conditions: for Change from Baseline LS Mean: 3-Factor General Psychopathology Subscale Score / Change from Baseline LS Mean: 3-Factor Negative Subscale Score / Change from Baseline LS Mean: 3-Factor Positive Subscale Score / Change from Baseline LS Mean: 5-Factor Activation Score (PSM) / Change from Baseline LS Mean: 5-Factor Autistic Preoccupation Score (PSM) / Change from Baseline LS Mean: 5-Factor Dysphoric Mood Score (PSM) / Change from Baseline LS Mean: 5-Factor Positive Score (PSM) / Change from Baseline LS Mean: NSFS (post-hoc) / Change from Baseline LS Mean: PANSS Negative Factor Score (pentagonal structure model) / Change from Baseline LS Mean: PANSS Total Score / Effect Size vs Placebo: 3-Factor General Psychopathology Subscale Score / Effect Size vs Placebo: 3-Factor Negative Subscale Score / Effect Size vs Placebo: 3-Factor Positive Subscale Score / Effect Size vs Placebo: 5-Factor Activation Score (PSM) / Effect Size vs Placebo: 5-Factor Autistic Preoccupation Score (PSM) / Effect Size vs Placebo: 5-Factor Dysphoric Mood Score (PSM) / Effect Size vs Placebo: 5-Factor Positive Score (PSM) / Effect Size vs Placebo: NSFS (post-hoc) / Effect Size vs Placebo: PANSS Negative Factor Score (pentagonal structure model) / Effect Size vs Placebo: PANSS Total Score: ITT
From the text: “PANSS”, as used herein, refers to the positive and negative syndrome scale, which is used by physicians and clinicians to measure the severity of the symptoms in a schizophrenia patient. The scale is divided into three parts, a positive scale, which provides a “PANSS positive subscore”, a negative scale, which provides a “PANSS negative subscore”, and general psychopathology scale. The sum of these three parts provides a PANSS total score, which ranges from 30 to 210 (where higher scores indicate more severe symptoms). (Kay, S. R., et al. “The positive and negative syndrome scale (PANSS) for schizophrenia,” Schizophr Bulletin, 13(2), 261-276 (1987)).
As used herein, PANSS Marder's negative symptoms factor score (“NSFS”), refers to selection of seven of the PANSS items used by physicians and clinicians to measure the severity of the negative symptoms in a schizophrenia patient. (See Tables 5A and 5B.) The NSFS total score ranges from 7 to 49. (Marder, S. R. et al. “The effects of risperidone on the five dimensions of schizophrenia derived by factor analysis: combined results of the North American trials,” J Clin Psychiatry. 1997; 58:538-46.)
The PANSS was designed to be used in patients with schizophrenia to measure the overall severity of schizophrenic symptoms. The scale has been validated in different cultures and languages and is reliable and acceptable to regulatory health authorities as a primary scale to determine efficacy of intervention in schizophrenia. The name refers to the 2 types of symptoms in schizophrenia, as defined by the American Psychiatric Association: positive symptoms, which refer to an excess or distortion of normal functions (e.g., hallucinations and delusions), and negative symptoms, which represent a diminution or loss of normal functions.
The patient is rated from 1 to 7 on 30 different symptoms based on the interview as well as reports of family members or primary care hospital workers. The original PANSS included 3 groups of symptoms and subscale scores Positive, Negative, and General Psychopathology. Since the inception of PANSS, investigators have proposed additional grouping (structures) of PANSS such as the Marder structure (Marder, S. R. et al. “Issues and perspectives in designing clinical trials for negative symptoms in schizophrenia: consensus statements,” Schizophrenia Bulletin Open. 2020; 1(1). doi:10.1093/schizbullopen/sgz001) and the White structure (White, L. et al. “Empirical assessment of the factorial structure of clinical symptoms in schizophrenia”. Psychopathology. 1997; 30263-274).
The PANSS was assessed at the time points described in Table 4.
The PANSS-derived endpoints used in these studies and the integrated analyses are described in Table 5A and a summary of the individual PANSS items used by physicians and clinicians to measure the severity of the symptoms in a schizophrenia patient is provided in Table 5B. The scale is divided into three parts, a positive scale, which provides a “PANSS positive subscore”, a negative scale, which provides a “PANSS negative subscore”, and general psychopathology scale. The sum of these three parts provides a PANSS total score, which ranges from 30 to 210 (where higher scores indicate more severe symptoms). (See Kay, S. R., et al. “The positive and negative syndrome scale (PANSS) for schizophrenia,” Schizophr Bulletin, 13(2), 261-276 (1987) and Gopal, S., et al. “Improvement of Negative Symptoms in Schizophrenia with Paliperidone Palmitate 1-Month and 3-Month Long-Acting Injectables: Results from a Phase 3 Non-Inferiority Study” Neuropsychiatric Disease and Treatment, 681-690, DOI: 10.2147/NDT.5226296, both of which are incorporated by reference.) […]

## 1H-Isoindol-1-one,2-[ [1-[2-(4-fluorophenyl)-2-oxoethyl]-4-piperidinyl]methyl]-2,3-dihydro-, hydrochloride, hydrate (1:1:2) [Roluperidone]
32 mg QD, Week 12 DB
  Effect Size vs Placebo: 20% reduction in NSFS responders: 0.06
  Effect Size vs Placebo: 30% reduction in NSFS responders: 0
  Number of Patients with 20% reduction in NSFS at Week 12: 15/51
  Number of Patients with 30% reduction in NSFS at Week 12: 2/51
  Patients with 20% reduction in NSFS at Week 12 (%): (29%)
  Patients with 30% reduction in NSFS at Week 12 (%): (4%)
  Change from Baseline LS Mean: 3-Factor General Psychopathology Subscale Score: −1.07
  Change from Baseline LS Mean: 3-Factor Negative Subscale Score: −3.35
  Change from Baseline LS Mean: 3-Factor Positive Subscale Score: 0.46
  Change from Baseline LS Mean: 5-Factor Activation Score (PSM): −0.05
  Change from Baseline LS Mean: 5-Factor Autistic Preoccupation Score (PSM): −0.85
  Change from Baseline LS Mean: 5-Factor Dysphoric Mood Score (PSM): −0.32
  Change from Baseline LS Mean: 5-Factor Positive Score (PSM): 0.58
  Change from Baseline LS Mean: NSFS (post-hoc): −3.43
  Change from Baseline LS Mean: PANSS Negative Factor Score (pentagonal structure model): −3.07
  Change from Baseline LS Mean: PANSS Total Score: −3.66
  Effect Size vs Placebo: 3-Factor General Psychopathology Subscale Score: 0.23
  Effect Size vs Placebo: 3-Factor Negative Subscale Score: 0.54
  Effect Size vs Placebo: 3-Factor Positive Subscale Score: 0.16
  Effect Size vs Placebo: 5-Factor Activation Score (PSM): 0.44
  Effect Size vs Placebo: 5-Factor Autistic Preoccupation Score (PSM): 0.08
  Effect Size vs Placebo: 5-Factor Dysphoric Mood Score (PSM): 0.11
  Effect Size vs Placebo: 5-Factor Positive Score (PSM): −0.13
  Effect Size vs Placebo: NSFS (post-hoc): 0.61
  Effect Size vs Placebo: PANSS Negative Factor Score (pentagonal structure model): 0.45
  Effect Size vs Placebo: PANSS Total Score: 0.34
64 mg QD, Week 12 DB
  Effect Size vs Placebo: 20% reduction in NSFS responders: 0.17
  Effect Size vs Placebo: 30% reduction in NSFS responders: 0.15
  Number of Patients with 20% reduction in NSFS at Week 12: 18/54
  Number of Patients with 30% reduction in NSFS at Week 12: 7/54
  Change from Baseline LS Mean: 3-Factor General Psychopathology Subscale Score: −2.58
  Change from Baseline LS Mean: 3-Factor Negative Subscale Score: −3.82
  Change from Baseline LS Mean: 3-Factor Positive Subscale Score: 0.36
  Change from Baseline LS Mean: 5-Factor Activation Score (PSM): −0.17
  Change from Baseline LS Mean: 5-Factor Autistic Preoccupation Score (PSM): −1.21
  Change from Baseline LS Mean: 5-Factor Dysphoric Mood Score (PSM): −1.04
  Change from Baseline LS Mean: 5-Factor Positive Score (PSM): −0.25
  Change from Baseline LS Mean: NSFS (post-hoc): −3.9
  Change from Baseline LS Mean: PANSS Negative Factor Score (pentagonal structure model): −3.50
  Change from Baseline LS Mean: PANSS Total Score: −5.83
  Effect Size vs Placebo: 3-Factor General Psychopathology Subscale Score: 0.56
  Effect Size vs Placebo: 3-Factor Negative Subscale Score: 0.70
  Effect Size vs Placebo: 3-Factor Positive Subscale Score: 0.20
  Effect Size vs Placebo: 5-Factor Activation Score (PSM): 0.49
  Effect Size vs Placebo: 5-Factor Autistic Preoccupation Score (PSM): 0.22
  Effect Size vs Placebo: 5-Factor Dysphoric Mood Score (PSM): 0.43
  Effect Size vs Placebo: 5-Factor Positive Score (PSM): 0.24
  Effect Size vs Placebo: NSFS (post-hoc): 0.78
  Effect Size vs Placebo: PANSS Negative Factor Score (pentagonal structure model): 0.57
  Effect Size vs Placebo: PANSS Total Score: 0.57
OL period (placebo crossed over) and whole study
  PANSS PSM negative factor score, course in OL period: trend of improvement continued
